Test results published in patent publication US9585846B2, “Anti-microbial composition” (Wild Child, priority 2007, dated 2017).

Test system: S. aureus ATCC 6538P
Assay: Agar plate test of cream against S. aureus (colonies recovered)
Type: cell-based
Settings: farnesol when combined with cetrimide
Experimental: A series of plates were then prepared containing an aliquot of sample (3) prepared in accordance with the preferred formula given above. The aliquot was suspended in tryptone soy agar. 1 g of the cream was emulsified into 5 mL of saline. A 2 mL aliquot was removed and serially diluted using saline. 6 mL of tryptone soy broth was then added to the suspensions. They were then added to 10 ml, of molten double strength tryptone soy agar and plate poured. Once cooled the plates were inoculated with 94 cfu of S. aureus ATCC 6538P. The plates were then incubated at 32° C. for 5 days. Following the incubation the number of colonies of S. aureus isolated was then determined.

CC(C)=CCCC(C)=CCCC(C)=CCO [farnesol]
Antimicrobial effect of the combination: synergistic antimicrobial effects
